Data as given in US11147746B2, “Hydrophobic dental surfaces” (priority 2016, dated 2021).
No end group written: not given here.

Columns and labels:
[1] = Water contact angle (sessile drop) on peptide-coated dentin; assay type: physicochemical
Excerpt: The water contact angle (WCA) may be measured using the sessile drop method with deionized water as probe liquid. The sessile drop is the most common method for optical measurement of the contact angle using drop shape analysis. Measurement of the contact angle of a sessile drop that lies on the surface of a solid may be made with a contact angle goniometer, which allows measuring the contact angle visually by capturing the profile of a pure liquid on a solid substrate. The angle formed between the liquid-solid interface and the liquid-vapor interface is determined to be the water contact angle. A droplet is deposited by a syringe which is positioned above the sample surface, and a high-resolution camera may be used to capture the image from the profile or side view. The image may be analyzed using image analysis software. The measurement may be referred to as a static contact angle measurement. The change in WCA, or ΔWCA, is the difference between the average water contact angles after predetermined intervals of time, for example, 1 s and 21 s of drop contact with the tested surface, or the difference between the initial and the final water contact angles.
Water contact angles described according to the disclosure are with reference to the sessile drop technique, using a drop volume or 2-5 μL, for example, 3 μL. Similar or different values of WCA and ΔWCA for the same tested surfaces may be obtained using other methods to determine wettability of surfaces, such as the Wilhelmy method, or when using different drop volumes. In some examples, one or more of these or other techniques may be used to determine the WCA or ΔWCA.
The wettability of coated etched dentin with these peptides was evaluated in different conditions, for example, single or double GL13K coatings, rinsing with water or alcohol after coating, after deproteinization, with blow drying, alcohol drying, combinations of the two, or progressive alcohol drying after dentin etching, and using the same buffer solutions with or without peptides. Dynamic water contact angles (WCA) of water drops placed on the treated dentin surfaces were measured.
A drop of 3 μL of deionized water was dispensed using a contact angle meter (DCM-E1, Kyowa, Japan) on top of the dentin surfaces with and without treatments. Images of the drop were automatically taken with the camera of the contact angle meter every second for 21 s; i.e., until the shape of the drop on the surface was stable for all surfaces analyzed. The shape of the profile of the drop on the surface was then automatically identified by the equipment's software (Famas, Kyowa, Japan) and the contact angle between the liquid-solid interface and the liquid-vapor interface was determined. The reported WCA are average values at the end of the test; i.e., after 21 s the drop was in contact with the tested surface for at least 3 different drops in three different surfaces for each dentin treatment. ΔWCA is the difference between the average water contact angles after 1 s and 21 s of drop contact with the tested surface; i.e., the difference between the initial and the final water contact angles.
A de-proteinization step was used to remove demineralized/exposed collagen. […] A super-hydrophobic GL13K-coated dentin surface with water contact angles up to 100 was produced.

[2] = Saliva (enzyme) challenge of coated dentin, then WCA and acidic dye penetration; design: species or system bovine; settings: saliva at 37° C. for three consecutive days
Method: Peptide-coated dentin samples were challenged with saliva, which includes enzymes. Bovine dentin slabs, prepared as discussed above with reference to EXAMPLE 2, were incubated in freshly collected and filtered saliva (thus exposed to biodegrading enzymes) at 37° C. for three consecutive days. The WCA was subsequently measured, and the samples were further immersed in acidic blue dye for 4 h. GL13K-coated dentin retained its hydrophobic character after the challenge, with average WCA=105°. FIG. 7A is a photograph showing a transverse cross-section of a tooth slab including enamel and dentin and treated with a buffer solution, exposed to saliva for three days, and subjected to an acidic blue dye.

[3] = dentin prepared with the deproteinized method, then coated (samples S12, S14, S16)
[4] = progressive dehydration protocol (increasing ethanol concentrations)

Sequence | WCA [1, 3] [°] | water contact angles ([1]; etching, wet de-proteinization with 5% NaOCl, coating without alcohol dehydration (Example 8)) | WCA [1, 4] [°] | ΔWCA [1, 4] [°] | WCA ([1]; single coating on etched dentin, alcohol rinse and blow drying) [°] | WCA ([1]; single coating on etched dentin, water rinse and blow drying) [°] | WCA ([1]; two coating treatments, rinsing with alcohol) [°] | variation of water contact angle over time ([1]; with respect to the etched dentin) | average WCA after saliva challenge [2] [°]
GKIIKLKASLKLL [GL13K] | 85 | up to 100 | 120 | 4 | 55 | 70 | 100 | significantly reduced | 105
VRLIVAVRIWRR [Sample 1018] | 84 | – | – | – | – | – | – | – | –
